The target of this assay is T1, C-X-C chemokine receptor type 2 (Homo sapiens, UniProt P25025).
T1 sequence (P25025 whole entry): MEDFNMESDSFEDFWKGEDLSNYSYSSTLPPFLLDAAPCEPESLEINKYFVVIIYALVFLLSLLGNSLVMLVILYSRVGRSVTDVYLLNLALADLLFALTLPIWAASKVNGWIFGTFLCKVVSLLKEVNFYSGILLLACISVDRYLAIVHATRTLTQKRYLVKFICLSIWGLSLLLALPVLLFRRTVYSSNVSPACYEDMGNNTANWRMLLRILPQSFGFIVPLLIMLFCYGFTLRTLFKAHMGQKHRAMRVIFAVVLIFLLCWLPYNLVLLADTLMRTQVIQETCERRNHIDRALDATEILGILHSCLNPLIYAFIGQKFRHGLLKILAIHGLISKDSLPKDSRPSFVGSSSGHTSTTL
Kind of assay: In Vitro Inhibition of Intracellular Calcium Release. On the procedure: Briefly, human neutrophils were suspended in HBSS− (without Ca2+ and Mg2+) containing 10 mM HEPES and FLIPR Calcium 3 dye (3.1×10^7 cells in total volume 1.7 mL). Cells were aliquoted (200 μL of the cell suspension per tube, 8 tubes total) and 2 μL of compound 9 (with appropriate dilutions) were added to each of 6 tubes. The tested concentrations of compound 9 were 156 nM, 312 nM, 625 nM, 1250 nM, 2500 nM and 5000 nM. As controls, 2 μL of DMSO (1% final concentration) were added to 2 other tubes. Cells were incubated for 30 min at 37° C. […] The cell suspension was aliquoted into a 96-well Reading Plate (Corning) in a volume of 90 μL (10^5 cells/well). […] After 15 sec of reading the basal level of fluorescence by FlexStation II, 10 μL of GROα or HBSS− were automatically transferred from the Compound Plate into the Reading Plate (final concentration of GROα was 25 nM). Changes in fluorescence were monitored (λex=485 nm, λem=525 nm) every 5 s for 240 to 500 s at room temperature.The maximum change in fluorescence, expressed in arbitrary units over baseline (Max-Min), was used to determine the GROα response. The effect of each compound on the GROα response was normalized and expressed as a percent of the DMSO control, which was designated as 100% response. […]

pIC50: −log10 of the molar value.

As a reminder, the pIC50 is −log10 of the IC50, conventionally taken in molar units.

Consider `CC1(C)OB(c2ccccc2CNc2ccc(C(=O)Nc3ccc(F)cc3)cn2)OC1(C)C` [USRE47740, Compound 7], for which the negative-log IC50 (pIC50) is 5.82.

The values above are taken from BindingDB's records for patent USRE47740 (Syntrix Biosystems Inc., 2019).
